# In PubChem BioAssay (NCI):
#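 Following 48 hours of exposure in 96-well plates, responses at five concentrations were used to interpolate endpoints linearly. GI50 marks 50% less growth. The concentration for full growth arrest is given as TGI.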
# Assays:
# Assay in all cases: NCI anticancer screen, dose series, 48 h
# SR leukemia = tested on: SR leukemia
# K-562 leukemia = tested on: K-562 leukemia
# NCI/ADR-RES ovarian = tested on: NCI/ADR-RES ovarian
# HCC-2998 colon = tested on: HCC-2998 colon
# MALME-3M melanoma = tested on: MALME-3M melanoma
# A498 renal = tested on: A498 renal
# HCT-116 colon = tested on: HCT-116 colon
# SK-MEL-2 melanoma = tested on: SK-MEL-2 melanoma
# M14 melanoma = tested on: M14 melanoma
# SNB-75 CNS = tested on: SNB-75 CNS
# LOX IMVI melanoma = tested on: LOX IMVI melanoma
# SF-295 CNS = tested on: SF-295 CNS
# RXF 393 renal = tested on: RXF 393 renal
# OVCAR-3 ovarian = tested on: OVCAR-3 ovarian
# HT29 colon = tested on: HT29 colon
# UACC-257 melanoma = tested on: UACC-257 melanoma
# MDA-MB-231 breast = tested on: MDA-MB-231 breast
# SK-MEL-5 melanoma = tested on: SK-MEL-5 melanoma
# SK-MEL-28 melanoma = tested on: SK-MEL-28 melanoma
# NCI-H522 lung = tested on: NCI-H522 lung
# SNB-19 CNS = tested on: SNB-19 CNS
# SF-539 CNS = tested on: SF-539 CNS
# MDA-MB-468 breast = tested on: MDA-MB-468 breast
# PC-3 prostate = tested on: PC-3 prostate
# HCT-15 colon = tested on: HCT-15 colon
# UO-31 renal = tested on: UO-31 renal
# NCI-H460 lung = tested on: NCI-H460 lung
# MCF7 breast = tested on: MCF7 breast
# A549 NSCLC = tested on: A549 NSCLC
# ACHN renal = tested on: ACHN renal
# SK-OV-3 ovarian = tested on: SK-OV-3 ovarian
# SW-620 colon = tested on: SW-620 colon
# HOP-62 NSCLC = tested on: HOP-62 NSCLC
# DU-145 prostate = tested on: DU-145 prostate
# NCI-H23 lung = tested on: NCI-H23 lung
# MOLT-4 leukemia = tested on: MOLT-4 leukemia
# U251 CNS = tested on: U251 CNS
# EKVX NSCLC = tested on: EKVX NSCLC
# 786-0 renal = tested on: 786-0 renal
# CCRF-CEM leukemia = tested on: CCRF-CEM leukemia
# CAKI-1 renal = tested on: CAKI-1 renal
# OVCAR-8 ovarian = tested on: OVCAR-8 ovarian
# HS 578T breast = tested on: HS 578T breast
# KM12 colon = tested on: KM12 colon
# HOP-92 NSCLC = tested on: HOP-92 NSCLC
# SF-268 CNS = tested on: SF-268 CNS
# MDA-MB-435 = tested on: MDA-MB-435
# BT-549 breast = tested on: BT-549 breast
# IGROV1 ovarian = tested on: IGROV1 ovarian
# UACC-62 melanoma = tested on: UACC-62 melanoma
# SN12C renal = tested on: SN12C renal
# OVCAR-5 ovarian = tested on: OVCAR-5 ovarian
# NCI-H226 lung = tested on: NCI-H226 lung
# RPMI-8226 leukemia = tested on: RPMI-8226 leukemia
# T-47D breast = tested on: T-47D breast
# OVCAR-4 ovarian = tested on: OVCAR-4 ovarian
# TK-10 renal = tested on: TK-10 renal
# HL-60(TB) leukemia = tested on: HL-60(TB) leukemia
# COLO 205 colon = tested on: COLO 205 colon
compound,measurement,setting,value
Nc1nnc(-c2c[nH]c3ncc(Br)cc23)c(-c2c[nH]c3ccc(Br)cc23)n1,GI50,SR leukemia,0.378 µM
same,TGI,SR leukemia,14.8 µM
same,GI50,K-562 leukemia,0.497 µM
same,TGI,K-562 leukemia,16.8 µM
same,GI50,NCI/ADR-RES ovarian,13.4 µM
same,TGI,NCI/ADR-RES ovarian,36.4 µM
same,GI50,HCC-2998 colon,14 µM
same,TGI,HCC-2998 colon,28.9 µM
same,GI50,MALME-3M melanoma,4.61 µM
same,TGI,MALME-3M melanoma,25.8 µM
same,GI50,A498 renal,13.7 µM
same,TGI,A498 renal,29 µM
same,GI50,HCT-116 colon,3.82 µM
same,TGI,HCT-116 colon,18.9 µM
same,GI50,SK-MEL-2 melanoma,6.31 µM
same,TGI,SK-MEL-2 melanoma,23.1 µM
same,GI50,M14 melanoma,4.67 µM
same,TGI,M14 melanoma,22.2 µM
same,GI50,SNB-75 CNS,1.56 µM
same,TGI,SNB-75 CNS,8.26 µM
same,GI50,LOX IMVI melanoma,5.39 µM
same,TGI,LOX IMVI melanoma,23.3 µM
same,GI50,SF-295 CNS,5.4 µM
same,TGI,SF-295 CNS,20.8 µM
same,GI50,RXF 393 renal,1.78 µM
same,TGI,RXF 393 renal,7.03 µM
same,GI50,OVCAR-3 ovarian,3 µM
same,TGI,OVCAR-3 ovarian,12.7 µM
same,GI50,HT29 colon,5.74 µM
same,TGI,HT29 colon,26 µM
same,GI50,UACC-257 melanoma,12.4 µM
same,TGI,UACC-257 melanoma,29.7 µM
same,GI50,MDA-MB-231 breast,13.1 µM
same,TGI,MDA-MB-231 breast,32.5 µM
same,GI50,SK-MEL-5 melanoma,3.06 µM
same,TGI,SK-MEL-5 melanoma,13.9 µM
same,GI50,SK-MEL-28 melanoma,10.5 µM
same,TGI,SK-MEL-28 melanoma,24.4 µM
same,GI50,NCI-H522 lung,0.403 µM
same,TGI,NCI-H522 lung,15.3 µM
same,GI50,SNB-19 CNS,10.9 µM
same,TGI,SNB-19 CNS,33.7 µM
same,GI50,SF-539 CNS,3.48 µM
same,TGI,SF-539 CNS,17.2 µM
same,GI50,MDA-MB-468 breast,1.57 µM
same,TGI,MDA-MB-468 breast,8.83 µM
same,GI50,PC-3 prostate,3.6 µM
same,TGI,PC-3 prostate,22.4 µM
same,GI50,HCT-15 colon,4.41 µM
same,TGI,HCT-15 colon,19.1 µM
same,GI50,UO-31 renal,4.58 µM
same,TGI,UO-31 renal,20.7 µM
same,GI50,NCI-H460 lung,5.14 µM
same,TGI,NCI-H460 lung,24.4 µM
same,GI50,MCF7 breast,0.92 µM
same,TGI,MCF7 breast,18.5 µM
same,GI50,A549 NSCLC,10.9 µM
same,TGI,A549 NSCLC,44.5 µM
same,GI50,ACHN renal,6.04 µM
same,TGI,ACHN renal,19.6 µM
same,GI50,SK-OV-3 ovarian,10.6 µM
same,TGI,SK-OV-3 ovarian,24.4 µM
same,GI50,SW-620 colon,5.32 µM
same,TGI,SW-620 colon,27.2 µM
same,GI50,HOP-62 NSCLC,5.26 µM
same,TGI,HOP-62 NSCLC,20.2 µM
same,GI50,DU-145 prostate,7.24 µM
same,TGI,DU-145 prostate,21.1 µM
same,GI50,NCI-H23 lung,11.3 µM
same,TGI,NCI-H23 lung,26.2 µM
same,GI50,MOLT-4 leukemia,1.89 µM
same,TGI,MOLT-4 leukemia,12.7 µM
same,GI50,U251 CNS,10.1 µM
same,TGI,U251 CNS,29.7 µM
same,GI50,EKVX NSCLC,10.2 µM
same,TGI,EKVX NSCLC,26.3 µM
same,GI50,786-0 renal,8.24 µM
same,TGI,786-0 renal,23.2 µM
same,GI50,CCRF-CEM leukemia,2.33 µM
same,TGI,CCRF-CEM leukemia,> 100 µM
same,GI50,CAKI-1 renal,4.02 µM
same,TGI,CAKI-1 renal,17.9 µM
same,GI50,OVCAR-8 ovarian,10.4 µM
same,TGI,OVCAR-8 ovarian,30.4 µM
same,GI50,HS 578T breast,4.47 µM
same,TGI,HS 578T breast,28.8 µM
same,GI50,KM12 colon,6.18 µM
same,TGI,KM12 colon,23.6 µM
same,GI50,HOP-92 NSCLC,4.06 µM
same,TGI,HOP-92 NSCLC,24.3 µM
same,GI50,SF-268 CNS,8.72 µM
same,TGI,SF-268 CNS,34 µM
same,GI50,MDA-MB-435,0.379 µM
same,TGI,MDA-MB-435,16.1 µM
same,GI50,BT-549 breast,2.71 µM
same,TGI,BT-549 breast,12 µM
same,GI50,IGROV1 ovarian,6.29 µM
same,TGI,IGROV1 ovarian,24.4 µM
same,GI50,UACC-62 melanoma,3.79 µM
same,TGI,UACC-62 melanoma,18.8 µM
same,GI50,SN12C renal,7.31 µM
same,TGI,SN12C renal,23.6 µM
same,GI50,OVCAR-5 ovarian,10.8 µM
same,TGI,OVCAR-5 ovarian,27.3 µM
same,GI50,NCI-H226 lung,3.77 µM
same,TGI,NCI-H226 lung,26.9 µM
same,GI50,RPMI-8226 leukemia,4.68 µM
same,TGI,RPMI-8226 leukemia,50.4 µM
same,GI50,T-47D breast,4.16 µM
same,TGI,T-47D breast,26.2 µM
same,GI50,OVCAR-4 ovarian,5.78 µM
same,TGI,OVCAR-4 ovarian,21.7 µM
same,GI50,TK-10 renal,15.1 µM
same,TGI,TK-10 renal,33.5 µM
same,GI50,HL-60(TB) leukemia,1.99 µM
same,TGI,HL-60(TB) leukemia,16.3 µM
same,GI50,COLO 205 colon,3.35 µM
same,TGI,COLO 205 colon,14.9 µM
